Data taken from PubChem BioAssay (NCI).
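Method: 48-hour compound exposure of cells in 96-well plates, five concentrations, linear interpolation of endpoints. At the GI50, growth is halved. TGI: total growth inhibition.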

Legend:
Assay in all cases: NCI tumour cell line growth inhibition, 48 h
SK-OV-3 ovarian = tested on: SK-OV-3 ovarian
HT29 colon = tested on: HT29 colon
NCI-H226 lung = tested on: NCI-H226 lung
HCT-15 colon = tested on: HCT-15 colon
OVCAR-4 ovarian = tested on: OVCAR-4 ovarian
SF-539 CNS = tested on: SF-539 CNS
HCC-2998 colon = tested on: HCC-2998 colon
SNB-75 CNS = tested on: SNB-75 CNS
786-0 renal = tested on: 786-0 renal
MALME-3M melanoma = tested on: MALME-3M melanoma

| SMILES | GI50 (SK-OV-3 ovarian) | TGI (SK-OV-3 ovarian) | GI50 (HT29 colon) | TGI (HT29 colon) | GI50 (NCI-H226 lung) | TGI (NCI-H226 lung) | GI50 (HCT-15 colon) | TGI (HCT-15 colon) | GI50 (OVCAR-4 ovarian) | TGI (OVCAR-4 ovarian) | GI50 (SF-539 CNS) | TGI (SF-539 CNS) | GI50 (HCC-2998 colon) | TGI (HCC-2998 colon) | GI50 (SNB-75 CNS) | TGI (SNB-75 CNS) | GI50 (786-0 renal) | TGI (786-0 renal) | GI50 (MALME-3M melanoma) | TGI (MALME-3M melanoma) |
| --- | --- | --- | --- | --- | --- | --- | --- | --- | --- | --- | --- | --- | --- | --- | --- | --- | --- | --- | --- | --- |
| c1ccc(-c2nc(-c3ccccn3)nc(-c3ccccn3)n2)nc1 | 54.2 µM | > 100 µM | 6.73 µM | > 100 µM | 44.9 µM | > 100 µM | 5.71 µM | > 100 µM | 18.6 µM | > 100 µM | 40.3 µM | > 100 µM | 75.5 µM | > 100 µM | > 100 µM | > 100 µM | 61.5 µM | > 100 µM | 35.3 µM | > 100 µM |
| O=c1cc(-c2cccs2)[nH]c2cc3c(cc12)OCO3 | – | 8.14 µM | – | > 74.7 µM | – | > 39.4 µM | – | > 100 µM | – | > 22.2 µM | – | 12.7 µM | – | > 51.6 µM | – | 6.63 µM | – | > 41.3 µM | – | > 100 µM |
| COc1ccc(C2=Nn3c(nnc3-c3cc(Cl)cc(Cl)c3Cl)SC2)cc1 | 0.522 µM | > 100 µM | 0.336 µM | – | 0.778 µM | > 100 µM | 0.52 µM | > 100 µM | 0.805 µM | > 100 µM | 0.225 µM | 0.741 µM | 1.21 µM | 5.41 µM | 0.335 µM | – | 0.411 µM | – | 0.44 µM | > 50.5 µM |
| O=C(/C=C/c1ccccc1)Oc1cccc2cccnc12 | – | > 100 µM | – | 29.3 µM | – | > 66.7 µM | – | 26.2 µM | – | 27.6 µM | – | 30.5 µM | – | > 100 µM | – | > 71 µM | – | > 100 µM | – | 11.4 µM |
| CC1=C([Se]CC(OC(=O)CC[Se]c2ccccc2)C(=O)NC(C)(C)C)C(=O)c2ccccc2C1=O (configuration not stated) | 1.45 µM | 2.81 µM | 1.96 µM | 3.64 µM | 2 µM | 4.56 µM | 2.47 µM | 5.86 µM | 1.61 µM | 3 µM | 1.75 µM | 3.15 µM | 1.76 µM | 3.2 µM | 1.47 µM | 2.82 µM | 1.83 µM | 3.23 µM | 2.1 µM | 4.46 µM |
| c1ccc(C2ONC3=NCCN32)cc1 (configuration not stated) | 37 µM | > 100 µM | 67.9 µM | > 100 µM | 25.3 µM | 78.6 µM | 16.9 µM | > 100 µM | > 100 µM | > 100 µM | 46.6 µM | > 100 µM | 58.1 µM | > 100 µM | 53.4 µM | > 100 µM | 13.3 µM | 68 µM | 62.9 µM | > 100 µM |
| Nc1ncn([C@@H]2S[C@H](CO)[C@@H](O)[C@@H]2F)c(=O)n1 | 2.94 µM | > 100 µM | 2.45 µM | > 100 µM | 9.99 µM | > 100 µM | 2.7 µM | > 100 µM | > 100 µM | > 100 µM | 9.8 µM | > 77.9 µM | 1.84 µM | > 100 µM | 43.4 µM | > 100 µM | 0.337 µM | > 100 µM | 5.13 µM | > 100 µM |
